The values below come from patent US12358886B2, “Heterocyclic compounds for use in the treatment of cancer” (Artios Pharma Limited, priority 2019, dated 2025).

SMILES strings stand for the structures.

For one experiment, the target named is Polθ protein (amino acids 2-2590) (Homo sapiens, UniProt O75417). The experiment can be described thus: Polθ full length enzyme potency assay (PicoGreen). Conditions: Polθ IC50 (nM), full length N-His, C-term FLAG tagged Polθ, PicoGreen fluorescence, 12 point concentration response.
Chain of Polθ protein (amino acids 2-2590) (O75417 2-2590): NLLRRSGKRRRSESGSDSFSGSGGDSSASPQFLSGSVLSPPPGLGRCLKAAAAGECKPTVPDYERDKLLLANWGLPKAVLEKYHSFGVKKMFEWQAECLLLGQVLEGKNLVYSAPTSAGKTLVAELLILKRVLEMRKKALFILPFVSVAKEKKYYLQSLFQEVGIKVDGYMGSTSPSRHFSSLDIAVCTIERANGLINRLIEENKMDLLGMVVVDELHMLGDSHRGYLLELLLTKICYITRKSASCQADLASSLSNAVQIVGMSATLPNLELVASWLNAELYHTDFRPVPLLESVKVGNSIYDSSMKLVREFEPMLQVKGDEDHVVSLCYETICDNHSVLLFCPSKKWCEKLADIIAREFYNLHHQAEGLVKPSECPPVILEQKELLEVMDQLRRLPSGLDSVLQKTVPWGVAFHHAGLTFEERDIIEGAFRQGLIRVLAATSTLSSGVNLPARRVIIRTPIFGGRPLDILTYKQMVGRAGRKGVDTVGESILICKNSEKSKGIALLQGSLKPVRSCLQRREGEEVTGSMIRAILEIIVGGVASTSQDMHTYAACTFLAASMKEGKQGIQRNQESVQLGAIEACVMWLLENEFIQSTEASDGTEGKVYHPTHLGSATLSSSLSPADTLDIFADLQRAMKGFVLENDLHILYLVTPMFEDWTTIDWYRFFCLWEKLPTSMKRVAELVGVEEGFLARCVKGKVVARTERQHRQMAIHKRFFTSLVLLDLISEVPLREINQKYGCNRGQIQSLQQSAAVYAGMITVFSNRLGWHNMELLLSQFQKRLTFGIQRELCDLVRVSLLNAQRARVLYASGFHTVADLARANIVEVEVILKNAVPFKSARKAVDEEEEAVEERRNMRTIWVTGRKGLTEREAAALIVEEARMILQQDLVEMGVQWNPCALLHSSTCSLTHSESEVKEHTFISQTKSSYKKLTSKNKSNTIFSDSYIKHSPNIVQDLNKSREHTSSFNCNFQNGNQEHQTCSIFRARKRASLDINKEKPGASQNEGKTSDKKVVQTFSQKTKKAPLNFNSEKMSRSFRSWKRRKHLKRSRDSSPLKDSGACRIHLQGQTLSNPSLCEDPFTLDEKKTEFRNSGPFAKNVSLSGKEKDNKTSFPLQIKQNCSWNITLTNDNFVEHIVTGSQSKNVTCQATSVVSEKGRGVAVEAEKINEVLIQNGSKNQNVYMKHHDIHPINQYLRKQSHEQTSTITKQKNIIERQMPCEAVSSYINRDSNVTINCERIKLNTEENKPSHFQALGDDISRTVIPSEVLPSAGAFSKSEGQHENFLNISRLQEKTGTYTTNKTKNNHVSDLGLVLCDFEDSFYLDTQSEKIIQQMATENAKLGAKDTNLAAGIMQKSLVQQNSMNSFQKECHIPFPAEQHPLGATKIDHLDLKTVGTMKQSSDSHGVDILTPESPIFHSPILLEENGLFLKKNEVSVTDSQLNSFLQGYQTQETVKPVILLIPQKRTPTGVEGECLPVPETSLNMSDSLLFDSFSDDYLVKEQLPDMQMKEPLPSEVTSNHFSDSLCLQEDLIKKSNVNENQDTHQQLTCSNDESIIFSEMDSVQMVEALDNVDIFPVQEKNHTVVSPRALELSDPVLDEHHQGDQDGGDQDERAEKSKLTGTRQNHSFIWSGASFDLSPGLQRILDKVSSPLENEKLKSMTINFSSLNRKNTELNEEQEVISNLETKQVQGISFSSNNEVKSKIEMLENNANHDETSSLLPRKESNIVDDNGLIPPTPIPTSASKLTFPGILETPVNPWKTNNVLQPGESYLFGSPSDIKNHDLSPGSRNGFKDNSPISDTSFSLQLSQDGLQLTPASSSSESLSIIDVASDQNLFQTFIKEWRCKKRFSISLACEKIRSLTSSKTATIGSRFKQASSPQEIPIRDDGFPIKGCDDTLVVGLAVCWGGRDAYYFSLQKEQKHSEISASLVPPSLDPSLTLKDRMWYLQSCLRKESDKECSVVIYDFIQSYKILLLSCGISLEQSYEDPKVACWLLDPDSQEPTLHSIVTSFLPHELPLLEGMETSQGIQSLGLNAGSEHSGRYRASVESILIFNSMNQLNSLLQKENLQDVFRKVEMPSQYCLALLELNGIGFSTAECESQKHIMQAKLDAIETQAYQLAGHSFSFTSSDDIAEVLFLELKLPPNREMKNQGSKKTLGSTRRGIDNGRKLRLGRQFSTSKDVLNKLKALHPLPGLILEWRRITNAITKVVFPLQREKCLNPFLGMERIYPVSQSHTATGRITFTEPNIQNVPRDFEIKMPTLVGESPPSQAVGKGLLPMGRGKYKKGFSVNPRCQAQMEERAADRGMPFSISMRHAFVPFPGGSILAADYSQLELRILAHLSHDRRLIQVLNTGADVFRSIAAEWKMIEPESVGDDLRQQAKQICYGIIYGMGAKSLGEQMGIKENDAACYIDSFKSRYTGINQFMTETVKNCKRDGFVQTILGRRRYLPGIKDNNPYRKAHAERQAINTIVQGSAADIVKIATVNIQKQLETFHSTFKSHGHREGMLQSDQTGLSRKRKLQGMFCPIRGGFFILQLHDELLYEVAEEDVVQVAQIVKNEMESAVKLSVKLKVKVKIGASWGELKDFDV
In general, IC50 refers to the concentration needed to halve the response being measured. `COc1cc(C(F)(F)F)c(C#N)c(N2C[C@@H](O)C[C@H]2C(=O)N(C)c2cccc(C)c2)n1` [Example 30, (2S,4S)-1-(3-Cyano-6-methoxy-4-(trifluoromethyl)pyridin-2-yl)-4-hydroxy-N-methyl-N-(m-tolyl)pyrrolidine-2-carboxamide] registered an IC50 of 514 nM.
`CCN(C(=O)[C@@H]1C[C@H](F)CN1c1nc(C)cc(C)c1C#N)c1ccc(F)c(F)c1` [Example 37, (2S,4S)-1-(3-Cyano-4,6-dimethylpyridin-2-yl)-N-(3,4-difluorophenyl)-N-ethyl-4-fluoropyrrolidine-2-carboxamide] gave an IC50 of 248 nM.
Take `Cc1cc(C(F)(F)F)cc(N2C(=O)N(CCN3CCCC3CO)C[C@H]2C(=O)N(C)c2ccc(F)c(Cl)c2)n1` (single isomer, unassigned; isomer 2) [Example 199]: half-maximal inhibition (IC50) was put at 32 nM.
In the case of `Cc1cc(C(F)(F)F)cc(N2C(=O)N(CC(O)CO)C[C@H]2C(=O)N(C)c2ccc(F)c(Cl)c2F)n1` (stereo partly drawn) [Example 226, (4S)—N-(3-Chloro-2,4-difluorophenyl)-1-(2,3-dihydroxypropyl)-N-methyl-3-(6-methyl-4-(trifluoromethyl)pyridin-2-yl)-2-oxoimidazolidine-4-carboxamide], the IC50 is 19 nM.
Same read-out and setting: to `Cc1cccc(N(C)C(=O)[C@@H]2[C@H](O)CCN2c2nc(C)cc(C)c2C#N)c1` [Example 25, (2S,3R)-1-(3-Cyano-4,6-dimethylpyridin-2-yl)-3-hydroxy-N-methyl-N-(m-tolyl)pyrrolidine-2-carboxamide] belongs 32 nM; to `Cc1cc(C(F)(F)F)cc(N2C(=O)OC[C@H]2C(=O)N(C)c2ccc(Cl)cc2F)n1` [Example 97, (S)-N-(4-Chloro-2-fluorophenyl)-N-methyl-3-(6-methyl-4-(trifluoromethyl)pyridin-2-yl)-2-oxooxazolidine-4-carboxamide], 11 nM.
The same measure, in the same setting: to `Cc1cc(C(F)(F)F)cc(N2C(=O)N(CCN(C)C)C[C@H]2C(=O)N(C)c2ccc(F)c(Cl)c2)n1` [Example 182, (S)-N-(3-Chloro-4-fluorophenyl)-1-(2-(dimethylamino)ethyl)-N-methyl-3-(6-methyl-4-(trifluoromethyl)pyridin-2-yl)-2-oxoimidazolidine-4-carboxamide] belongs 61 nM.
`Cc1cc(C(F)(F)F)cc(N2C(=O)[C@@H](O)[C@@H](O)[C@H]2C(=O)N(C)c2ccc(Cl)cc2F)n1` [Example 165, (2S,3S,4S)—N-(4-Chloro-2-fluorophenyl)-3,4-dihydroxy-N-methyl-1-(6-methyl-4-(trifluoromethyl)pyridin-2-yl)-5-oxopyrrolidine-2-carboxamide] yielded an IC50 of 20 nM.
Same read-out and setting: as for `Cc1cc(C(F)(F)F)cc(N2C(=O)N(CCC(O)CO)C[C@H]2C(=O)N(C)c2ccc(F)c(Cl)c2)n1` (stereo partly drawn) [Example 232, (4S)—N-(3-Chloro-4-fluorophenyl)-1-(3,4-dihydroxybutyl)-N-methyl-3-(6-methyl-4-(trifluoromethyl)pyridin-2-yl)-2-oxoimidazolidine-4-carboxamide], the figure is 15 nM; as for `Cc1cc(C(F)(F)F)cc(N2C(=O)N(CC(O)CO)C[C@H]2C(=O)N(c2ccc(F)c(Cl)c2)C2CC2)n1` (stereo partly drawn) [Example 231, (4S)—N-(3-Chloro-4-fluorophenyl)-N-cyclopropyl-1-(2,3-dihydroxypropyl)-3-(6-methyl-4-(trifluoromethyl)pyridin-2-yl)-2-oxoimidazolidine-4-carboxamide], 94 nM; as for `Cc1cc(C(F)(F)F)cc(N2C(=O)N(CC(C)O)C[C@H]2C(=O)N(C)c2ccc(F)c(Cl)c2)n1` (stereo partly drawn) [Example 160, (4S)—N-(3-Chloro-4-fluorophenyl)-1-(2-hydroxypropyl)-N-methyl-3-(6-methyl-4-(trifluoromethyl)pyridin-2-yl)-2-oxoimidazolidine-4-carboxamide], 6 nM.
Same read-out and setting: to `Cc1cc(C)c(C#N)c(N2C[C@@H](O)C[C@H]2C(=O)N(C)c2cccc(Cl)c2)n1` [Example 13, (2S,4S)-N-(3-Chlorophenyl)-1-(3-cyano-4,6-dimethylpyridin-2-yl)-4-hydroxy-N-methylpyrrolidine-2-carboxamide] belongs 180 nM.
Molecule `Cc1cc(C)c(C#N)c(N2C[C@@H](O)C[C@H]2C(=O)N(C)c2ccc(F)c(F)c2)n1` [Example 4, (2S,4S)-1-(3-Cyano-4,6-dimethylpyridin-2-yl)-N-(3,4-difluorophenyl)-4-hydroxy-N-methylpyrrolidine-2-carboxamide] yielded an IC50 of 288 nM.
Still for that read-out and setting: as for `CN(C(=O)[C@@H]1COC(=O)N1c1cc(OC(F)F)cc(Cl)n1)c1ccc(F)c(Cl)c1` [Example 120, (S)-3-(6-Chloro-4-(difluoromethoxy)pyridin-2-yl)-N-(3-chloro-4-fluorophenyl)-N-methyl-2-oxooxazolidine-4-carboxamide], the figure is 94 nM; as for `Cc1cc(C(F)(F)F)cc(N2C(=O)NC[C@H]2C(=O)N(c2ccc(F)c(Cl)c2F)C2CC2)n1` [Example 161, (S)—N-(3-Chloro-2,4-difluorophenyl)-N-cyclopropyl-3-(6-methyl-4-(trifluoromethyl)-pyridin-2-yl)-2-oxoimidazolidine-4-carboxamide], 12 nM; as for `C=Cc1c(F)ccc(N(C)C(=O)[C@@H]2COC(=O)N2c2cc(C(F)(F)F)cc(C)n2)c1F` [Example 107, (S)—N-(2,4-Difluoro-3-vinylphenyl)-N-methyl-3-(6-methyl-4-(trifluoromethyl)pyridin-2-yl)-2-oxooxazolidine-4-carboxamide], 18 nM.
Turning to `CCN(C(=O)[C@@H]1COC(=O)N1c1cc(C(C)(F)F)cc(C)n1)c1ccc(F)c(Cl)c1` [Example 125, (S)—N-(3-Chloro-4-fluorophenyl)-3-(4-(1,1-difluoroethyl)-6-methylpyridin-2-yl)-N-ethyl-2-oxooxazolidine-4-carboxamide], the IC50 is 261 nM.
The same measure, in the same setting: as for `Cc1cc(C(F)(F)F)cc(N2C(=O)N(CCCN(C)C)C[C@H]2C(=O)N(C)c2ccc(F)c(Cl)c2)n1` [Example 183, (S)-N-(3-Chloro-4-fluorophenyl)-1-(3-(dimethylamino)propyl)-N-methyl-3-(6-methyl-4-(trifluoromethyl)pyridin-2-yl)-2-oxoimidazolidine-4-carboxamide], the figure is 24 nM; as for `Cc1cccc(N(C)C(=O)[C@@H]2CCC(=O)N2c2cc(C(F)(F)F)cc(C)n2)c1` [Example 59, (S)—N-Methyl-1-(6-methyl-4-(trifluoromethyl)pyridin-2-yl)-5-oxo-N-(m-tolyl)pyrrolidine-2-carboxamide], 7 nM.
Take `Cc1cc(C(F)(F)F)c(C#N)c(N2C[C@@H](O)C[C@H]2C(=O)N(C)c2ccc(Cl)c(F)c2)n1` [Example 18, (2S,4S)-N-(4-Chloro-3-fluorophenyl)-1-(3-cyano-6-methyl-4-(trifluoromethyl)pyridin-2-yl)-4-hydroxy-N-methyl-pyrrolidine-2-carboxamide]: the IC50 came out at 33 nM.

The same experiment, now with this note: read-out: Polθ IC50; full length N-His, C-term FLAG tagged Polθ, PicoGreen fluorescence, 12 point concentration response.
Take `Cc1cccc(N(C)C(=O)[C@@H]2[C@@H](O)CCN2c2nc(C)cc(C(F)(F)F)c2C#N)c1` [Example 26, (2S,3S)-1-(3-Cyano-6-methyl-4-(trifluoromethyl)pyridin-2-yl)-3-hydroxy-N-methyl-N-(m-tolyl)pyrrolidine-2-carboxamide]: the IC50 worked out at 61 nM.
